A short description of data set [1]: Solubility of the salts in water and organic solvents. Type of data set: physicochemical.
For data set [2] the following is noted: in vivo; cited from earlier work.
The conditions of data set [3]: PB therapy, cited from earlier work.
A short description of data set [4]: Specificity of the anion for Cs^+ in aqueous solution. The note with it: versus other cations. An excerpt:
For [H2NB2(C6F5)6]^− and [(H3O2)B2(C6F5)6]^− the process appears 100% specific for cesium so that cesium is quantitatively and exclusively separated from all other cations in the aqueous solution. Thus, a single and fully selective separation step is necessary only to separate cesium from the other components in the form of the intermediate Cs[L]. In a second step, intermediate Cs[L] is converted into the desired product CsA, allowing recycling of [L].
The interest of the inventors in weakly coordinating anions (WCAs) has led them to synthesize the new cesium salt, Cs[H2NB2(C6F5)6] (2). The inventors realized that (2) is insoluble in water and that it is instantaneously formed by mixing any aqueous solution containing Cs^+ with virtually any source of the [H2NB2(C6F5)]^− anion. The reaction is 100% specific for Cs^+, since only in this case [H2NB2(C6F5)6]^− changes its usual asymmetric conformation to an “inverse C2 symmetric” conformation to form a specific 3D lattice.

Data set [5] can be described thus: Isolation of Cs[H2NB2(C6F5)6] (2) from neat water containing CsCl. How it is done: [Na(OEt2)3][H2NB2(C6F5)6] (69.6 mg, 0.0541 mmol; FW=1285.4; c≈0.9·10^−4 M) was dissolved in 570 mL of water. CsCl (9.5 mg, 0.0564 mmol; FW=168.4) was added and after brief mixing the clear solution was left unstirred. Soon colorless crystals began to separate. The mixture was left overnight and the precipitate was isolated by filtration; yield of 2 42.1 mg (0.0359 mmol, 66%; FW=1172.9). The aqueous mother liquor was extracted once with 20 mL of CH2Cl2. Evaporation of the solvent gave an additional crop of 20 mg (0.0170 mmol, 32%). Total isolated yield was 62.1 mg (0.053 mmol; 98%). The IR spectra of the isolated solids were identical with that of pure Cs[H2NB2(C6F5)6] (2).

The nature of data set [6]: Isolation of 2 from water containing other metal salts. The conditions noted are these: 450 mL water with CsCl 5·10^−5 mol/L plus KCl, PbCl2, CrCl3, CaCl2, FeCl3; reagent c≈4.75·10^−5 M. Here is the method:
To a water solution (450 mL), containing the inorganic salts listed below, was added [Na(OEt2)3][H2NB2(C6F5)6] (27.5 mg, 0.0214 mmol; FW=1285.4; c≈4.75·10^−5 M) and the suspension was stirred overnight. A brown precipitate resulted (color presumably arising from Fe(OH)3) which was filtered off and was washed with dichloromethane to extract 2. The solvent of the extract was evaporated to dryness to leave a colorless residue: yield 19.2 mg of 2 (0.0163 mmol, 76%; FW=1172.9), identified by comparison of the IR spectrum with that of pure 2.
List of Added Inorganic Salts

Where two headings read alike, the source gives them in different places.

Take `Fc1c(F)c(F)c([B-]([NH2+][B-](c2c(F)c(F)c(F)c(F)c2F)(c2c(F)c(F)c(F)c(F)c2F)c2c(F)c(F)c(F)c(F)c2F)(c2c(F)c(F)c(F)c(F)c2F)c2c(F)c(F)c(F)c(F)c2F)c(F)c1F.[Cs+]` [Compound 2, Cs[H2NB2(C6F5)6]]: the “solubility in CH2Cl2, THF, chloroform, Et2O and toluene” value in data set [1] (CH2Cl2, THF and solvents of low dielectric constant) is on record as “dissolves well”. Moreover, the “solubility in MeOH” value in data set [1] (MeOH) is listed as “only limited soluble”. In addition, the solubility in alkanes entry in data set [1] (alkanes) is “virtually insoluble”. In addition, the solubility in water entry in data set [1] was “virtually insoluble”; in data set [1] (listed as Cs[H2NB2(C6F5)6]) it was “insoluble”.

With `Fc1c(F)c(F)c([B-](c2c(F)c(F)c(F)c(F)c2F)(c2c(F)c(F)c(F)c(F)c2F)c2c(F)c(F)c(F)c(F)c2F)c(F)c1F.[Cs+]` [Compound 7, Cs[B(C6F5)4]], the solubility in water entry in data set [1] was “insoluble”.

For the molecule `Fc1c(F)c(F)c([B-](c2c(F)c(F)c(F)c(F)c2F)(c2c(F)c(F)c(F)c(F)c2F)c2c(F)c(F)c(F)c(F)c2F)c(F)c1F.[Rb+]` [Compound 8, Rb[B(C6F5)4]], the solubility in water entry in data set [1] is “water insoluble”.

As to `Fc1c(F)c(F)c([B-](c2c(F)c(F)c(F)c(F)c2F)(c2c(F)c(F)c(F)c(F)c2F)c2c(F)c(F)c(F)c(F)c2F)c(F)c1F.[Tl+]` [Compound 9, Tl[B(C6F5)4], reference compound], in data set [1], the solubility in water entry was “water insoluble”.

`[C-]#N.[C-]#N.[C-]#N.[C-]#N.[C-]#N.[C-]#N.[C-]#N.[C-]#N.[C-]#N.[C-]#N.[C-]#N.[C-]#N.[C-]#N.[C-]#N.[C-]#N.[C-]#N.[C-]#N.[C-]#N.[Fe+2].[Fe+2].[Fe+2].[Fe+3].[Fe+3].[Fe+3].[Fe+3]` [Prussian blue, ferric hexacyanoferrate]: the “absorption by the body via the bowels” value in data set [2] is on record as “not absorbed by the body via the bowels to a noticeable extent”. Also, the “biological half-life of retention of cesium” value in data set [3] (adolescents) is given as approximately 30 days; in data set [3] (adults), “approximately 26 days”; in data set [3] (children), approximately 24 days.

Turning to `Fc1c(F)c(F)c([B-]([NH2+][B-](c2c(F)c(F)c(F)c(F)c2F)(c2c(F)c(F)c(F)c(F)c2F)c2c(F)c(F)c(F)c(F)c2F)(c2c(F)c(F)c(F)c(F)c2F)c2c(F)c(F)c(F)c(F)c2F)c(F)c1F` [[H2NB2(C6F5)6]^−], in data set [4], the specificity for cesium turned out to be 100%.

Turning to `CCOCC.CCOCC.CCOCC.Fc1c(F)c(F)c([B-]([NH2+][B-](c2c(F)c(F)c(F)c(F)c2F)(c2c(F)c(F)c(F)c(F)c2F)c2c(F)c(F)c(F)c(F)c2F)(c2c(F)c(F)c(F)c(F)c2F)c2c(F)c(F)c(F)c(F)c2F)c(F)c1F.[Na+]` [[Na(OEt2)3][H2NB2(C6F5)6]], the “yield of 2 precipitated from water” value in data set [5] (neat water 570 mL, reagent c≈0.9·10^−4 M, overnight, filtration) was determined as 66%. Further, in data set [5] (neat water, precipitate plus one CH2Cl2 extraction of the mother liquor), the “total isolated yield of 2” value turned out to be 98%. The “yield of 2 isolated from water containing other metal salts” value in data set [6] is given as 76%.

Turning to “Cs[(C6F5)3B(OH2)—(HO)B(C6F5)3] [Compound 5]”, the solubility in water result was “water insoluble” in data set [1] and “insoluble” in data set [1] (listed as Cs[H(OH)2B2(C6F5)6]).

For [(H3O2)B2(C6F5)6]^−, the specificity for cesium in data set [4] was determined as 100%.

These data come from patent US11279715B2, “Process for removing radioactive isotopes from aqueous fluids by fluorine containing reagents, fluorine containing, water-insoluble salts of the radioactive isotopes, and their use as therapeutic agents” (priority 2016, dated 2022).
